Key:
WT-ADSCs cells = assay: anti-proliferation efficacy and cell cycle of CDK4/6 inhibitors against primary adipose derived stem cells; format: cell-based, mouse; details: WT-ADSCs treated 6 days, PD 0.1 μM or LEE 10 μM, vs DMSO or vehicle; for frequency of proliferating cells (S-G2-M) / frequency of quiescence cells (G1): flow cytometric cell cycle profile; for total cell numbers: initial plating 5×10^5 cells
Protocol: (a, d) representative flow cytometric cell cycle profiles of WT-ADSCs cells treated with either PD (0.1 μM) or LEE (10 μM) for 6 days. (b, e) histograms summarizing the cell cycle distribution of the cells in A and D. Data shown are mean±s.d. (n=6); *P<0.05 vs DMSO or V, t-test. (c, f) Histograms summarizing the total cell numbers in WT-ADSCs cells treated with DMSO or PD (0.1 μM) for 6 days (c), or WT-ADSCs cells treated with vehicle (0.5% methycellulose) or LEE for 6 days (F). Data shown are mean±s.d. (n=6); *P<0.05 vs DMSO or V, t-test. The initial plating cells were 5×10^5.
To accomplish this, the anti-proliferation efficacy of CDK4/6 inhibitors against primary adipose derived stem cells (ADSCs) from the stromal vascular fraction (SVF) of WT adipose tissue (WT-ADSCs) we assessed. WT-ADSCs were treated with two known commercial available CDK4/6 inhibitors PD0332991 (PD) and LEE011 (LEE), two clinically relevant small molecule inhibitors of CDK4 and CDK6 kinases (Rader, J., et al. Clin Cancer Res 19, 6173-6182, 2013); Fry, D. W., et al. Mol Cancer Ther 3, 1427-1438, 2004; Pikman, Y., et al. Clin Cancer Res 23, 1012-1024, 2017) for 6 days with commonly used relevant effective doses (Fry, D. W., et al. Mol Cancer Ther 3, 1427-1438, 2004; Pikman, Y., et al. Clin Cancer Res 23, 1012-1024, 2017).

WT-ADSCs = assay: differentiation towards brown-like adipocytes in the presence of BAT inducers; format: cell-based, mouse; details: WT-ADSCs with BAT inducers; LEE011 10 μM, PD 0.1 μM; vs vehicle
Protocol: (a, d) Representative images of Oil Red O staining of differentiated ADSCs from WT and K43M mice (a, 10×) or WT-ADSCs treated with CDK4/6 inhibitor LEE011 (10 μM) and PD (0.1 μM) (a, 10×) in the presence of BAT inducers. (b, e) Representative images of Oil Red O staining of differentiated ADSCs from WT and K43M mice (b, 40×) or WT-ADSCs treated with CDK4/6 inhibitor LEE011 10 μM and PD 0.1 μM (e, 40×) in the presence of BAT inducers. (c, f) Representative images of bright field images of differentiated ADSCs from iWAT of WT and K43M mice or WT-ADSCs treated with CDK4/6 inhibitor LEE011 (10 μM) and PD (0.1 μM) (f, 40×) in the presence of BAT inducers.
(a) Relative mRNA levels of BAT markers Ucp-1, Pgc-1α and Cidea in differentiated ADSCs in the presence of BAT inducers. […] (b) lysates from cells were analyzed by immunoblotting for expression of CDK6, UCP-1, PGC-1α, and RUNX1. […]
Cellular differentiation entails the coordination of cell cycle arrest and tissue-specific gene expression. […] Accumulation of lipid-containing cells was detected by Oil red O staining as described (Hansen, J. B., et al. J Biol Chem 274, 2386-2393, 1999) (FIG. 11 a-b) and the characteristic feature of multilocular beige cells were also visualized under light microscopy (FIG. 11c). […]

| Structure (SMILES) | frequency of proliferating cells (S-G2-M) (WT-ADSCs cells) | frequency of quiescence cells (G1) (WT-ADSCs cells) | total cell numbers (WT-ADSCs cells) | brown-like adipocyte differentiation (WT-ADSCs) |
| --- | --- | --- | --- | --- |
| CN(C)C(=O)c1cc2cnc(Nc3ccc(N4CCNCC4)cn3)nc2n1C1CCCC1 [LEE011, Ribociclib] | dramatic reduction | increased frequency | successfully reduced | can induce brown-like adipocytes in vitro |
| CC(=O)c1c(C)c2cnc(Nc3ccc(N4CCNCC4)cn3)nc2n(C2CCCC2)c1=O [PD0332991, palbociclib] | dramatic reduction | increased frequency | successfully reduced | can induce brown-like adipocytes in vitro |

From patent publication US11077110B2, “Compositions and methods for treating and preventing metabolic disorders” (TUFTS MEDICAL CENTER, priority 2016, dated 2021)
